Tested on: NLRP3 inflammasome pathway
Assay: NLRP3 inflammasome pathway activation assay, MSU stimulation, IL-1β release (AlphaLISA)
Assay type: cell-based
Details: PMA-differentiated, LPS-primed human monocyte-like cells, MSU 150 µg/ml for 3 h
Description: The following assays were used to determine the inhibitory activity of test compounds on the NLRP3 inflammasome pathway using common stimuli Nigericin (Invivogen) or monosodium urate crystals (MSU) (Invivogen).
Human monocyte-like cells were cultured in RPMI-1640 Glutamax medium supplemented with 10% heat inactivated FCS and 50 U/ml penicillin-streptomycin (Life Technologies).
Human monocyte-like cells were seeded at 75000 per well in a 96-well plate and were differentiated overnight into macrophages with 10 ng/ml PMA (Phorbol Myristate Acetate). The following day, medium containing 10 ng/ml LPS (Lipopolysaccharide) were added. After 3 hours of LPS priming, concentrations of test compound in the range from 100 µM to 6 nM were added 30 min prior to NLRP3 inflammasome pathway stimulation with Nigericin 3.75 µM or MSU 150 µg/ml for 3 h.
For IL-1β quantification, supernatants were analyzed using AlphaLISA kits according to the manufacturer’s instructions (Perkin Elmer AlphaLISA AL220F). Briefly, in a 384-well OptiPlate™ microplate, 5 µl of sample was mixed, with 20 µl of AlphaLISA Anti-Analyte Acceptor beads (10 µg/mL final) and Biotinylated Antibody Anti-Analyte (1 nM final). Then, incubated 60 minutes at RT, then 25 µL of 2X SA-Donor beads (40 µg/mL final) were added and incubated 30 minutes at RT in the dark. Reading was done using an EnVision-Alpha Reader (PerkinElmer).
IC50(concentration corresponding to 50% inhibition) were determined using GraphPad Prism 8.

SMILES: CC(C)c1cc(C2(C(=O)O)CN=C(Nc3c4c(cc5c3CCC5)CCC4)O2)no1 (racemic) [Example 27, 2-((1,2,3,5,6,7-hexahydro-s-indacen-4-yl)amino)-5-(5-isopropylisoxazol-3-yl)-4,5-dihydrooxazole-5-carboxylate]
- IC50: 1000 to 10000 nM

SMILES: CCOC(=O)C1(c2nc(C(C)C)cs2)CN=C(Nc2c3c(cc4c2CCC4)CCC3)O1 (racemic) [Example 55, ethyl 2-((1,2,3,5,6,7-hexahydro-s-indacen-4-yl)amino)-5-(4-isopropylthiazol-2-yl)-4,5-dihydrooxazole-5-carboxylate]
- IC50: < 1000 nM

SMILES: COC(=O)C1(c2ccon2)CN=C(Nc2c3c(cc4c2CCC4)CCC3)O1 (racemic) [Example 84, methyl 2-((1,2,3,5,6,7-hexahydro-s-indacen-4-yl)amino)-5-(isoxazol-3-yl)-4,5-dihydrooxazole-5-carboxylate]
- IC50: < 1000 nM

SMILES: CC(C)OC(=O)C1(c2ccon2)CN=C(Nc2c3c(cc4c2CCC4)CCC3)O1 (centres unmarked) [Example 56, Isopropyl 2-((1,2,3,5,6,7-hexahydro-s-indacen-4-vl)amino)-5-(isoxazol-3-yl)-4,5-dihvdrooxazole-5-carboxylate]
- IC50: < 1000 nM

SMILES: CCOC(=O)C1(c2ccns2)CN=C(Nc2c3c(cc4c2CCC4)CCC3)O1 (single isomer, unassigned) [Example 43, ethyl 2-((1,2,3,5,6,7-hexahydro-s-indacen-4-yl)amino)-5-(isothiazol-5-yl)-4,5-dihydrooxazole-5-carboxylate]
- IC50: < 1000 nM

SMILES: COC(=O)C1(c2cc(C(C)(C)O)on2)CN=C(Nc2c3c(cc4c2CCC4)CCC3)O1 (single isomer, unassigned) [Example 72, methyl 2-((1,2,3,5,6,7-hexahydro-s-indacen-4-yl)amino)-5-(5-(2-hydroxypropan-2-yl)isoxazol-3-yl)-4,5-dihydrooxazole-5-carboxylate]
- IC50: < 1000 nM

SMILES: CCOC(=O)C1(c2ccco2)CN=C(Nc2c3c(cc4c2CCC4)CCC3)O1 (racemic) [Example 36, ethyl 5-(furan-2-yl)-2-((1,2,3,5,6,7-hexahydro-s-indacen-4-yl)amino)-4,5-dihydrooxazole-5-carboxylate]
- IC50: 1000 to 10000 nM

SMILES: CCOC(=O)C1(c2nccs2)CN=C(Nc2c3c(cc4c2CCC4)CCC3)O1 (single isomer, unassigned) [Example 21, ethyl 2-((1,2,3,5,6,7-hexahydro-s-indacen-4-yl)amino)-5-(thiazol-2-yl)-4,5-dihydrooxazole-5-carboxylate]
- IC50: < 1000 nM

SMILES: CCOC(=O)C1(c2cc(C(C)C)on2)CN=C(Nc2c3c(cc4c2CCC4)CCC3)O1 (racemic) [Example 21A, ethyl 2-((1,2,3,5,6,7-hexahydro-s-indacen-4-yl)amino)-5-(5-isopropylisoxazol-3-yl)-4,5-dihydrooxazole-5-carboxylate]
- IC50: < 1000 nM

SMILES: CCCOC(=O)C1(c2cc(C(C)(C)O)on2)CN=C(Nc2c3c(cc4c2CCC4)CCC3)O1 (racemic) [Example 74, propyl 2-((1,2,3,5,6,7-hexahydro-s-indacen-4-yl)amino)-5-(5-(2-hydroxypropan-2-yl)isoxazol-3-yl)-4,5-dihydrooxazole-5-carboxylate]
- IC50: < 1000 nM

SMILES: CC(C)(C)OC(=O)C1(c2cc(C(C)(C)O)on2)CN=C(Nc2c3c(cc4c2CCC4)CCC3)O1 (racemic) [Example 82, tert-butyl 2-((1,2,3,5,6,7-hexahydro-s-indacen-4-yl)amino)-5-(5-(2-hydroxypropan-2-yl)isoxazol-3-yl)-4,5-dihydrooxazole-5-carboxylate]
- IC50: < 1000 nM

SMILES: CCCOC(=O)C1(c2nccs2)CN=C(Nc2c3c(cc4c2CCC4)CCC3)O1 (racemic) [Example 65, propyl 2-((1,2,3,5,6,7-hexahydro-s-indacen-4-yl)amino)-5-(thiazol-2-yl)-4,5-dihydrooxazole-5-carboxylate]
- IC50: < 1000 nM

SMILES: O=C(O)C1(c2cccnc2)CN=C(Nc2c3c(cc4c2CCC4)CCC3)O1 (centres unmarked) [Example 26, 2-((1,2,3,5,6,7-hexahydro-s-indacen-4-yl)amino)-5-(pyridin-3-yl)-4,5-dihydrooxazole-5-carboxylic acid]
- IC50: 1000 to 10000 nM

SMILES: CC(C)OC(=O)C1(c2cc(C(C)(C)O)on2)CN=C(Nc2c3c(cc4c2CCC4)CCC3)O1 (racemic) [Example 17, isopropyl 2-((1,2,3,5,6,7-hexahydro-s-indacen-4-yl)amino)-5-(5-(2-hydroxypropan-2-yl)isoxazol-3-yl)-4,5-dihydrooxazole-5-carboxylate]
- IC50: < 1000 nM

SMILES: COC(=O)C1(c2nccs2)CN=C(Nc2c3c(cc4c2CCC4)CCC3)O1 (racemic) [Example 62, methyl 2-((1,2,3,5,6,7-hexahydro-s-indacen-4-yl)amino)-5-(thiazol-2-yl)-4,5-dihydrooxazole-5-carboxylate]
- IC50: < 1000 nM

SMILES: CCCCOC(=O)C1(c2cc(C(C)(C)O)on2)CN=C(Nc2c3c(cc4c2CCC4)CCC3)O1 (racemic) [Example 76, butyl 2-((1,2,3,5,6,7-hexahydro-s-indacen-4-yl)amino)-5-(5-(2-hydroxypropan-2-yl)isoxazol-3-yl)-4,5-dihydrooxazole-5-carboxylate]
- IC50: < 1000 nM

SMILES: O=C(OC1CCCC1)C1(c2ccon2)CN=C(Nc2c3c(cc4c2CCC4)CCC3)O1 (centres unmarked) [Example 57, Cyclopentyl 2-((1,2,3,5,6,7-hexahvdro-s-indacen-4-vl)amino)-5-(isoxazol-3-vl)-4,5-dihvdrooxazole-5-carboxylate]
- IC50: < 1000 nM

SMILES: CCOC(=O)C1(C2CCCO2)CN=C(Nc2c3c(cc4c2CCC4)CCC3)O1 (racemic) [Example 40, ethyl 2-((1,2,3,5,6,7-hexahydro-s-indacen-4-yl)amino)-5-(tetrahydrofuran-2-yl)-4,5-dihydrooxazole-5-carboxylate]
- IC50: < 1000 nM

SMILES: CCOC(=O)C1(c2cc(C(C)(C)O)on2)OC(Nc2c3c(cc4c2CCC4)CCC3)=NC1CC (centres unmarked) [Example 51, ethyl 4-ethyl-2-((1,2,3,5,6,7-hexahydro-s-indacen-4-yl)amino)-5-(5-(2-hydroxypropan-2-yl)isoxazol-3-yl)-4,5-dihydrooxazole-5-carboxylate]
- IC50: 1000 to 10000 nM

SMILES: CCOC(=O)C1(c2ccno2)CN=C(Nc2c3c(cc4c2CCC4)CCC3)O1 (racemic) [Example 44, ethyl 2-((1,2,3,5,6,7-hexahydro-s-indacen-4-yl)amino)-5-(isoxazol-5-yl)-4,5-dihydrooxazole-5-carboxylate]
- IC50: < 1000 nM

SMILES: CCOC(=O)C1(c2ccon2)CN=C(Nc2c3c(cc4c2CCC4)CCC3)O1 (racemic) [Example 21B, ethyl 2-((1,2,3,5,6,7-hexahydro-s-indacen-4-yl)amino)-5-(isoxazol-3-yl)-4,5-dihydrooxazole-5-carboxylate]
- IC50: < 1000 nM

SMILES: CCOC(=O)C1(c2ccn(C(C)C)n2)CN=C(Nc2c3c(cc4c2CCC4)CCC3)O1 (racemic) [Example 54, ethyl 2-((1,2,3,5,6,7-hexahydro-s-indacen-4-yl)amino)-5-(1-isopropyl-1 H-pyrazol-3-yl)-4,5-dihydrooxazole-5-carboxylate]
- IC50: < 1000 nM

SMILES: CCCCOC(=O)C1(c2nccs2)CN=C(Nc2c3c(cc4c2CCC4)CCC3)O1 (racemic) [Example 67, butyl 2-((1,2,3,5,6,7-hexahydro-s-indacen-4-yl)amino)-5-(thiazol-2-yl)-4,5-dihydrooxazole-5-carboxylate]
- IC50: < 1000 nM

SMILES: CCOC(=O)C1(c2cccs2)CN=C(Nc2c3c(cc4c2CCC4)CCC3)O1 (racemic) [Example 34, ethyl 2-((1,2,3,5,6,7-hexahydro-s-indacen-4-yl)amino)-5-(thiophen-2-yl)-4,5-dihydrooxazole-5-carboxylate]
- IC50: 1000 to 10000 nM

SMILES: CC(C)(C)OC(=O)C1(c2ccon2)CN=C(Nc2c3c(cc4c2CCC4)CCC3)O1 (racemic) [Example 60, tert-butyl 2-((1,2,3,5,6,7-hexahydro-s-indacen-4-yl)amino)-5-(isoxazol-3-yl)-4,5-dihydrooxazole-5-carboxylate]
- IC50: < 1000 nM

SMILES: CCOC(=O)C1(c2nccn2C)CN=C(Nc2c3c(c(F)c4c2CCC4)CCC3)O1 (racemic) [Example 37, ethyl 2-((8-fluoro-1,2,3,5,6,7-hexahydro-s-indacen-4-yl)amino)-5-(1-methyl-1H-imidazol-2-yl)-4,5-dihydrooxazole-5-carboxylate]
- IC50: < 1000 nM

SMILES: CCCCCOC(=O)C1(c2cc(C(C)(C)O)on2)CN=C(Nc2c3c(cc4c2CCC4)CCC3)O1 (racemic) [Example 79, pentyl 2-((1,2,3,5,6,7-hexahydro-s-indacen-4-yl)amino)-5-(5-(2-hydroxypropan-2-yl)isoxazol-3-yl)-4,5-dihydrooxazole-5-carboxylate]
- IC50: < 1000 nM

SMILES: COC(=O)C1(c2cc(OC)on2)CN=C(Nc2c3c(cc4c2CCC4)CCC3)O1 (racemic) [Example 48, methyl 2-((1,2,3,5,6,7-hexahydro-s-indacen-4-yl)amino)-5-(5-methoxyisoxazol-3-yl)-4,5-dihydrooxazole-5-carboxylate]
- IC50: < 1000 nM

SMILES: CC(C)(O)c1cc(C2(C(=O)OC3CCCC3)CN=C(Nc3c4c(cc5c3CCC5)CCC4)O2)no1 (racemic) [Example 19, cyclopentyl 2-((1,2,3,5,6,7-hexahydro-s-indacen-4-yl)amino)-5-(5-(2-hydroxypropan-2-yl)isoxazol-3-yl)-4,5-dihydrooxazole-5-carboxylate]
- IC50: < 1000 nM

Reference: US20230250070A1, “DIHYDROOXAZOLE AND THIOUREA DERIVATIVES MODULATING THE NLRP3 INFLAMMASOME PATHWAY” (AC IMMUNE SA, priority 2020, published 2023)
